Experimental data taken from patent US5466716A, “Liposomal trimethylsphingosine” (The Biomembrane Institute, priority 1994, dated 1995).
Like-named read-outs stand apart in the source and are kept apart here.

Experiments:
Assay type in all cases: cell-based, human
[1] = test system: phosphoinositide turnover; test: fMLP-induced phosphoinositide turnover in neutrophils (32P incorporation); details: for activity at 5 µM: Homo sapiens, Neutrophil, Table VI, 5 μM effector plus fMLP, control 100, read-out: PIP labeling
Description: Amount of ^32 P in PIP and PIP2 was measured using TLC separation. The spots on TLC plates were scraped off and the radioactivity therein was measured with a Beckman scintillation counter. Each spot was compared as to intensity with the identical spot of the control sample.
After incubation, the cells were washed and resuspended in the same buffer at a concentration of 1×10^7 cells/ml. Each suspension (1 ml) then was pretreated with TMS, SPN or DMS, or equal volume of 50% ethanol, for 10 min at 37° C. Then keeping the same temperature, fMLP was added to a final concentration of 1.0 μM. Two minutes later, the reaction was terminated by adding 3.75 ml of chloroform/methanol (1:2) to each cell suspension, followed by sonication for 15 min. An additional 1.25 ml of chloroform, 1.25 ml of water and 50 μl of acetone were added and the total mixture was mixed and left overnight.
Following centrifugation of the mixture, the phospholipids were extracted by Folch's partition method, taking the lower phase from the cell lysate. […] The TLC plate was developed with control phospholipids, in a solvent comprising chloroform/methanol/4M NaOH at a ratio of 45:35:10 and containing 0.1% CDTA (trans-1,2-diaminocyclohexane-N,N,N',N'-tetraacetic acid) for 65 min at 37° C. The bands were identified by staining the control phospholipids with primuline and visualization under ultraviolet light. Autoradiography was performed with Kodak diagnostic film GBX-2 (Rochester N.Y.) by exposing overnight at 37° C.

[2] = test system: 47 kDa and 65 kDa proteins; test: PMA-induced phosphorylation of 47 kDa and 65 kDa neutrophil proteins; details: for phosphorylation of 47 kDa and 65 kDa proteins / time in which inhibitory effect on phosphorylation is observed: 15-45 μM; for phosphorylation of 47 kDa and 65 kDa proteins: PMA 1.5 μM; for time in which inhibitory effect on phosphorylation is observed: incubation
Description: Excess unbound components were removed by centrifugation and the pellets were resuspended in the same buffer, repeating twice. The cells then were divided into 7 treatment groups, each containing ≈1×10^7 cells in a total volume of 0.4 ml. […] Two minutes later, the reaction was terminated by adding 0.1 ml of Laemmli's sample buffer and 20 mM EDTA, followed by heating at 100° C. for 5 min. Aliquots were separated through 10% sodium dodecyl sulfate gels using known procedures. ^32 P incorporation was visualized by autoradiography.

neutrophils = test: neutrophil transmigration through HUVEC monolayer
Description: A characteristic of neutrophils is the ability to adhere to activiated EC's and to migrate through the EC monolayer into the vascular or extravascular matrix. The effect of TMS on neutrophil interactions with EC's and their subsequent trans-endothelial migration thereof can be monitored in vitro using human umbilical endothelial cells (HUVEC's) (Luscinskas et al., J. Imm., 146, 1617, 1991). Neutrophils are added to a HUVEC monolayer and neutrophil-HUVEC interactions are assessed microscopically following fixation, embedding and staining of monolayer sections.
Cross-sections (2 μm) of the collagen bed with HUVEC's and neutrophils
were observed using a Zeiss light microscope with KPL W10 ahd Ph2 Neoflua
16 lenses. The number of cells transmigrated were counted for each view.
HUVEC's and culture media were purchased from Cell Systems (Kirkland, Wash.). The cells were maintained and cultured as described in Luscinskas et al., supra, with some modifications. Briefly, HUVEC's were maintained in 10 ml tissue culture flasks on a collagen type I bed obtained from rat tail (Upstate Biotechnology Inc, Lake Placid, N.Y.) with CS-complete medium, CS-growth factor and CS-AF-1 (Cell Systems). Cells became confluent within 2 to 4 days when incubated in 5% CO2 at 37° C.
For the transmigration assay, thick gels were formed in 24-well tissue culture plates. Preparation of the gel solution was carried out at 4° C. Eight parts of collagen solution (Vitrogen 100, from bovine tendon which contained less than 5 ng/ml endotoxin; Celtrix Labs, Palo Alto, Calif.), one part of 10×RPMI and one part of alkaline solution (2.2 g NaHCO3 in 100 ml of 0.05N NaOH and 200 mM HEPES) were mixed gently and distributed at 0.7 ml/well. The solution was left for 4 hr at 37° C. to eliminate air bubbles, then allowed to gel in a 37° C. oven for 3 hr. The wells were washed with 1.0 ml of CS-complete medium with attachment factors at least 4 times and every 3 to 6 hr during further incubation at 37° C. in 5% CO2.
HUVEC's at a passage level of less than 3 were detached from 10 ml tissue culture flasks with 3 ml of Trypsin-EDTA at 37° C. for 30 to 60 sec. Immediately, 3 ml of M199 with 20% heat-inactivated FCS was added. Cells were collected by centrifugation. The pellet was resuspended in 10 ml of CS-complete medium with attachment factors. Homogeneous cell suspensions were plated at 0.7 ml to each well and the plates were incubated for 3 hr at 37° C. The supernatant, which contains dead cells, was aspirated carefully and fresh complete medium with attachment factors was added.
The HUVEC monolayer in 24-well tissue culture plates were washed with M199 without FCS, then incubated with 1 ml/well of IL-1β (Boehringer Mannheim Biochemical Products, Indianapolis, Ind.) dissolved in M199 with 1% heat-inactivated FCS (HIFCS) at 10 U/ml. The plates were incubated at 37° C., 5% CO2 for 4 hr then washed gently with 1 ml of M199. The purified neutrophil suspension (1.5×10^6 cells/ml) in M199 containing 1% HIFCS was pre-incubated with TMS, or other effectors, for 10 min at 37° C. After aspirating the media in the well, 0.5 ml of the neutrophil suspension were added onto the HUVEC monolayer. The tissue culture plate was incubated for 90 min at 37° C.
The culture was terminated by gently aspirating the cell suspension, adding 1 ml of 10% formaldehyde in PBS and stored at 4° C. overnight for fixation. The edge of the collagen bed was cut with a small spatula along the wall 2 hr before removal from the well. The collagen bed, which has HUVEC's on the surface and transmigrated neutrophils within was embedded in paraffin, sectioned and followed by staining with hematoxylin-eosin for microscopic examination.

CCCCCCCCCCCCC/C=C/[C@@H](O)[C@H](CO)N(C)C [DMS, (4E)-N,N-dimethyl-D-erythro-sphingosine] was tested, and the activity at 5 µM [1] was 146 ± 27%, the “phosphorylation of 47 kDa and 65 kDa proteins” value [2] was “diminished significantly” and the “time in which inhibitory effect on phosphorylation is observed” value (“time in which inhibitory effect” below) [2] was ≤ 2 min.
CCCCCCCCCCCCC/C=C/[C@@H](O)[C@@H](N)CO [SPN, sphingosine] was tested, and the activity at 5 µM [1] was 174 ± 37%, the activity at 15 µM (neutrophils; Homo sapiens, Neutrophil, 1.5 h, read-out: Number of Cells/View) was 36 ± 12% and the “phosphorylation of 47 kDa and 65 kDa proteins” value [2] was “diminished significantly”. For the same compound, the “time in which inhibitory effect” value [2] was ≤ 2 min.
With CCCCCCCCCCCCC/C=C/[C@@H](O)[C@H](CO)[N+](C)(C)C [TMS, N,N,N-trimethylsphingosine] the “suppression of fMLP-dependent enhancement of 32P incorporation into PI, PIP and PIP2” value ([1]; 5 μM, fMLP 1 μM) was “suppressed strongly”, the “fMLP induced phosphorylation of phosphotidyl inositols” value ([1]; Example 8) was “suppressed” and the activity at 5 µM [1] was 127 ± 19%. The “inhibition of neutrophil migration” value (neutrophils; 8 μM pre-treatment) was “inhibited strongly”, the “number of cells migrating through the EC monolayer” value (neutrophils; 15 μM) was “greatly reduces the number of cells migrating” and the “inhibition of neutrophil migration” value (neutrophils; 25 μM pre-treatment) was “completely inhibited”. For the same compound, the “neutrophil migration (transmigration)” value (neutrophils; Example 10) was “affected neutrophil migration”, the activity at 4 µM (neutrophils; Homo sapiens, Neutrophil, 1.5 h, Table II, 4 μM, control 100, read-out: neutrophil transmigration (number of cells transmigrated)) was 96 ± 18% and the activity at 8 µM (neutrophils; Homo sapiens, Neutrophil, 1.5 h, Table II, 8 μM, control 100, read-out: neutrophil transmigration (number of cells transmigrated)) was 66 ± 28%. It also gave an activity at 15 µM (neutrophils; Homo sapiens, Neutrophil, 1.5 h, Table II, 15 μM, control 100, read-out: neutrophil transmigration (number of cells transmigrated)) of 41 ± 8.7%, an activity at 25 µM (neutrophils; Homo sapiens, Neutrophil, 1.5 h, Table II, 25 μM, control 100, read-out: neutrophil transmigration (number of cells transmigrated)) of 6.8 ± 4.1% and an activity at 45 µM (neutrophils; Homo sapiens, Neutrophil, 1.5 h, Table II, 45 μM, control 100, read-out: neutrophil transmigration (number of cells transmigrated)) of 1.2 ± 1.2%. For the same compound, the activity at 15 µM (neutrophils; Homo sapiens, Neutrophil, 1.5 h, Table III, 15 μM, control 100, read-out: Number of Cells/View) was 39 ± 17%, the “phosphorylation of 47 kDa and 65 kDa proteins” value [2] was “diminished significantly” and the “phosphorylation of specific proteins related to protein kinase C” value ([2]; Example 7) was “had an affect on phosphorylation of specific proteins”. The “time in which inhibitory effect” value [2] was ≤ 2 min.
For Calphostin C, the “Number of Cells/View” value (neutrophils; Table III, 5 μM, control 100, 90 min) was 19 ± 8.9.
